Data taken from patent publication US20090226392A1, “Phosphate-Binding Polymers for Oral Administration” (priority 1993, published 2009).

Assay: Phosphate binding test: polymer stirred in phosphate containing solution at pH 7 for 3 hours
Experimental: Candidate polymers were tested by stirring them in a phosphate containing solution at pH 7 for 3 hours. The solution was designed to mimic the conditions present in the small intestine.
The pH was adjusted to pH 7, once at the start of the test and again at the end of the test, using either aqueous NaOH or HCl. After 3 hours the polymer was filtered off and the residual phosphate concentration in the test solution was determined spectrophotometrically. The difference between the initial phosphate concentration and the final concentration was used to determine the amount of phosphate bound to the polymer.

CC(O)C(=O)[O-].CC(O)C(=O)[O-].[Ca+2] (centres unmarked) [Calcium Lactate]
Phosphate Bound (Table 2, other materials, pH 7, 3 hours, residual solution phosphate ~5 mM): 2.4 meq/g

[Ca+2].[Cl-].[Cl-] [Calcium Chloride]
Phosphate Bound (pH 7): 4.0 meq/g
